From patent US20240109917A1 (ACTELION PHARMACEUTICALS LTD, priority 2020, published 2024)
Where two headings read alike, the source gives them in different places.

Legend:
[1] = molecular target: PDGFRβ (Rattus norvegicus (Rat), UniProt Q05030); assay: PDGFRβ Cellular Assay (PDGFRb P-Y751 HTRF in A10 cells stimulated with PDGF-BB); format: cell-based
Method in brief: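 Rat A10 cells, plated overnight, were treated with compound for 3 hours, then stimulated with PDGF-BB (working stock 100 ng/mL in 10% FBS medium). After lysis, PDGFRβ P-Y751 was detected by HTRF.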

[2] = molecular target: VEGFR2, unphosphorylated (Homo sapiens (Human), UniProt P35968); assay: VEGFR ADP GLO Assay; format: biochemical
VEGFR2, unphosphorylated, sequence (P35968 20-1356): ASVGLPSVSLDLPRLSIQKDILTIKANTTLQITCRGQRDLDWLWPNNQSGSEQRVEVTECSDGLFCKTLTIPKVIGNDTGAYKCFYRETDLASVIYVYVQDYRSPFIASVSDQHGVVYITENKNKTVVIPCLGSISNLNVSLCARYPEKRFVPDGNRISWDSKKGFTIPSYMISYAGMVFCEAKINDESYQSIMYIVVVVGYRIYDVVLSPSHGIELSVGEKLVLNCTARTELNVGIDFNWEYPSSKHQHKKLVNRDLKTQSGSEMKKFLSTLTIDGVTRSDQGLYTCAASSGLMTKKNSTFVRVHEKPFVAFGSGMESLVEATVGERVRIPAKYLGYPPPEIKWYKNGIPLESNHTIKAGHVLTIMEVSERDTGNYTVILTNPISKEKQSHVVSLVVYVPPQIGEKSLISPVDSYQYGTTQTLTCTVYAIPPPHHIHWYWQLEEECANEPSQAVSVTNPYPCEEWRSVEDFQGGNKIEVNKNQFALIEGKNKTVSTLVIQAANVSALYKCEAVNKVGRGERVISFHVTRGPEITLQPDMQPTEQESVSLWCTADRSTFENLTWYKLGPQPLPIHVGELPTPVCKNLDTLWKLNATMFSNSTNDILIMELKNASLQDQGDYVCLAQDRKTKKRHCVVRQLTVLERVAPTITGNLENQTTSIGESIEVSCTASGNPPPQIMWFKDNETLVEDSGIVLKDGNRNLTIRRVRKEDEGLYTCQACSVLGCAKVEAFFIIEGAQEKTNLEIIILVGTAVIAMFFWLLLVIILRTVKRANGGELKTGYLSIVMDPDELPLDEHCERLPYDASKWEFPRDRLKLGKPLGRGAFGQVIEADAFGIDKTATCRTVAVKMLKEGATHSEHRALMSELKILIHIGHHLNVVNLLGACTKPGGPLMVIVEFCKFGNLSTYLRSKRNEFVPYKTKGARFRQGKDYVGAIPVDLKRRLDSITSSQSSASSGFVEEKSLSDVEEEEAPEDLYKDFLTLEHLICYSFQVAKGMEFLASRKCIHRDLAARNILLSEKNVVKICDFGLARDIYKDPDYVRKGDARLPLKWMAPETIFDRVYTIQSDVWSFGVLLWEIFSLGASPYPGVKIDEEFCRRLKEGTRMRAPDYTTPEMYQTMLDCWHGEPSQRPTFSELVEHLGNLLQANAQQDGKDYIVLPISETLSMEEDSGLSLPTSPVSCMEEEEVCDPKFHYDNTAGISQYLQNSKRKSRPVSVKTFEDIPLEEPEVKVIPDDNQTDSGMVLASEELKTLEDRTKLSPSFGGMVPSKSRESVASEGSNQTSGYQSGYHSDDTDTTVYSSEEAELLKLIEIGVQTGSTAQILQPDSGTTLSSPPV

PDGFRβ, sequence (Q05030 32-1097): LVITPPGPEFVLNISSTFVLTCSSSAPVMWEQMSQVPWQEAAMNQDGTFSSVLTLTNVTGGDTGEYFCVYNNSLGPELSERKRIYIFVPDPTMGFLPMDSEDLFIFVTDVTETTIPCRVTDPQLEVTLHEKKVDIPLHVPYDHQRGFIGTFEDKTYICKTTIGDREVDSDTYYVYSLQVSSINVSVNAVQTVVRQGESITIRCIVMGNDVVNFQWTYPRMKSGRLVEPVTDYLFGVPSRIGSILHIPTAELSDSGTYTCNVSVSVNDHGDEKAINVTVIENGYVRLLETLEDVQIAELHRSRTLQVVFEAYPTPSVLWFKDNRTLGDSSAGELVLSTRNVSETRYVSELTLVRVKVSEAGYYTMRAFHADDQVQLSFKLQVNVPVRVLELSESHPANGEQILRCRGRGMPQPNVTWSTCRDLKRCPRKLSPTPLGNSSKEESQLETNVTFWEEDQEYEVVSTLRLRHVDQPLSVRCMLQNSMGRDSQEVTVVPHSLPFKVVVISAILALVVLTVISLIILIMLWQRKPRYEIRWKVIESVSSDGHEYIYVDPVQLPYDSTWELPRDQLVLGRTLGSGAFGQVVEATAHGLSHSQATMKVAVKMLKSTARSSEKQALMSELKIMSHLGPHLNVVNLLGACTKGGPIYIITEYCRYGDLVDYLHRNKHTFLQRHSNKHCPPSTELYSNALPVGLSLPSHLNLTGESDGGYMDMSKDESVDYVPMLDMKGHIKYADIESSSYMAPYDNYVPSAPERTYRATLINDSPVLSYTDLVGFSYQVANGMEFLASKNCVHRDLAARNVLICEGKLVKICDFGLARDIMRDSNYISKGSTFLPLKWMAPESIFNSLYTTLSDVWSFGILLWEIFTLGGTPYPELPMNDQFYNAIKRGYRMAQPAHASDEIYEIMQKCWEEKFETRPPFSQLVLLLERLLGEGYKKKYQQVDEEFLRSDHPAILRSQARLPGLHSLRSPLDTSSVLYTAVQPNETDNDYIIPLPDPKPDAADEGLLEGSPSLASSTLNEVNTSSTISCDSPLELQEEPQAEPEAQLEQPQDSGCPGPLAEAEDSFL

Structure (SMILES)	IC50 ([1]; PDGFR Cellular IC50)	IC50 [2]	IC50 ([1]; read-out: PDGFR Cellular IC50)
Cc1ncc(NC(=O)CN2CCOC[C@H]2C)cc1NC(=O)c1cnn2cc(-c3cnn(C)c3)sc12 [Example 50, (R)-2-(1-methyl-1H-pyrazol-4-yl)-N-(2-methyl-5-(2-(3-methylmorpholino)acetamido)pyridin-3-yl)pyrazolo[5,1-b]thiazole-7-carboxamide]	27.3 nM	> 7500 nM	
Cc1ncc(NC(=O)CCN2CCCC2(C)C)cc1NC(=O)c1cnn2cc(-c3cnn(C)c3)sc12 [Example 42, N-(5-(3-(2,2-dimethylpyrrolidin-1-yl)propanamido)-2-methyl-pyridin-3-yl)-2-(1-methyl-1H-pyrazol-4-yl)pyrazolo[5,1-b]thiazole-7-carboxamide]		> 7500 nM	5.9 nM
COCCn1cc(-c2cn3ncc(C(=O)Nc4cc(NC(=O)CCN5C[C@H]6CC[C@@H]5C6)cnc4C)c3s2)cn1 [Example 94, N-(5-(3-((1R,4S)-2-azabicyclo[2.2.1]heptan-2-yl)propanamido)-2-methylpyridin-3-yl)-2-(1-(2-methoxyethyl)-1H-pyrazol-4-yl)pyrazolo[5,1-b]thiazole-7-carboxamide]		> 7500 nM	143 nM
Cc1ncc(NC(=O)CN2CCC2(C)C)cc1NC(=O)c1cnn2cc(-c3cnn(C)c3)sc12 [Example 82, N-(5-(2-(2,2-dimethylazetidin-1-yl)acetamido)-2-methylpyridin-3-yl)-2-(1-methyl-1H-pyrazol-4-yl)pyrazolo[5,1-b]thiazole-7-carboxamide]		> 7500 nM	12.5 nM
Cc1ncc(NC(=O)CN2CCOCC2(C)C)cc1NC(=O)c1cnn2cc(-c3cnn(C)c3)sc12 [Example 68, N-(5-(2-(3,3-dimethylmorpholino)acetamido)-2-methylpyridin-3-yl)-2-(1-methyl-1H-pyrazol-4-yl)pyrazolo[5,1-b]thiazole-7-carboxamide]		> 7500 nM	19.1 nM
Cc1ncc(NC(=O)CN2CCCOCC2)cc1NC(=O)c1cnn2cc(-c3cnn(C)c3)sc12 [Example 80, N-(5-(2-(1,4-oxazepan-4-yl)acetamido)-2-methylpyridin-3-yl)-2-(1-methyl-1H-pyrazol-4-yl)pyrazolo[5,1-b]thiazole-7-carboxamide]		> 7500 nM	37.8 nM
Cc1ncc(NC(=O)CN2CCc3scnc3C2)cc1NC(=O)c1cnn2cc(-c3cnn(C)c3)sc12 [Example 61, N-(5-(2-(6,7-dihydrothiazolo[4,5-c]pyridin-5 (4H)-yl)acetamido)-2-methylpyridin-3-yl)-2-(1-methyl-1H-pyrazol-4-yl)pyrazolo[5,1-b]thiazole-7-carboxamide]		> 7500 nM	43.6 nM
COCC1CCCN1CC(=O)Nc1cnc(C)c(NC(=O)c2cnn3cc(-c4cnn(C)c4)sc23)c1 (stereo not shown) [Example 79, N-(5-(2-(2-(methoxymethyl)pyrrolidin-1-yl)acetamido)-2-methylpyridin-3-yl)-2-(1-methyl-1H-pyrazol-4-yl)pyrazolo[5,1-b]thiazole-7-carboxamide]		> 7500 nM	12.6 nM
Cc1ncc(NC(=O)CN2CCc3ncccc3C2)cc1NC(=O)c1cnn2cc(-c3cnn(C)c3)sc12 [Example 63, N-(5-(2-(7,8-dihydro-1,6-naphthyridin-6 (5H)-yl)acetamido)-2-methylpyridin-3-yl)-2-(1-methyl-1H-pyrazol-4-yl)pyrazolo[5,1-b]thiazole-7-carboxamide]		> 7500 nM	223 nM
CC[C@@H]1CN(CC(=O)Nc2cnc(C)c(NC(=O)c3cnn4cc(-c5cnn(C)c5)sc34)c2)CCO1 [Example 65, (R)—N-(5-(2-(2-ethylmorpholino)acetamido)-2-methylpyridin-3-yl)-2-(1-methyl-1H-pyrazol-4-yl)pyrazolo[5,1-b]thiazole-7-carboxamide]		> 7500 nM	6.8 nM
CC[C@H]1CN(CC(=O)Nc2cnc(C)c(NC(=O)c3cnn4cc(-c5cnn(C)c5)sc34)c2)CCO1 [Example 66, (S)—N-(5-(2-(2-ethylmorpholino)acetamido)-2-methylpyridin-3-yl)-2-(1-methyl-1H-pyrazol-4-yl)pyrazolo[5,1-b]thiazole-7-carboxamide]		> 7500 nM	4.6 nM
